pIC50: −log10 of the molar value.
Tested on: 931267-113-T-J1-PDC KRAS spheroid with HUVEC/MSC, viability
Test: Anticancer human tumor 931267-113-T-J1-PDC patient-derived colon adenocarcinoma cell line growth inhibition [KRAS2]
Conditions: for pIC50: curve of first compound; for viability, T/C: stronger effect = lower value
In short: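 Combination screen of spheroid viability in tumor-cell co-cultures with endothelial (HUVEC) and mesenchymal stem cell stroma. Each agent was tested in half-log dilutions, topping at clinical Cmax or at 10 microM without a known Cmax.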

[1] = second compound 0.0316 µM, first compound 0.01 µM
[2] = second compound 0.0316 µM, first compound 0.0316 µM
[3] = second compound 0.0316 µM, first compound 0.1 µM
[4] = second compound 0.0316 µM, first compound 0.316 µM
[5] = second compound 0.0316 µM, first compound 1 µM
[6] = second compound 0.0316 µM, first compound 3.16 µM
[7] = second compound 0.1 µM, first compound 0.01 µM
[8] = second compound 0.1 µM, first compound 0.0316 µM
[9] = second compound 0.1 µM, first compound 0.1 µM
[10] = second compound 0.1 µM, first compound 0.316 µM
[11] = second compound 0.1 µM, first compound 1 µM
[12] = second compound 0.1 µM, first compound 3.16 µM
[13] = second compound 0.316 µM, first compound 0.01 µM
[14] = second compound 0.316 µM, first compound 0.0316 µM
[15] = second compound 0.316 µM, first compound 0.1 µM
[16] = second compound 0.316 µM, first compound 0.316 µM
[17] = second compound 0.316 µM, first compound 1 µM
[18] = second compound 0.316 µM, first compound 3.16 µM
[19] = second compound 1 µM, first compound 0.01 µM
[20] = second compound 1 µM, first compound 0.0316 µM
[21] = second compound 1 µM, first compound 0.1 µM
[22] = second compound 1 µM, first compound 0.316 µM
[23] = second compound 1 µM, first compound 1 µM
[24] = second compound 1 µM, first compound 3.16 µM
[25] = second compound 3.16 µM, first compound 0.01 µM
[26] = second compound 3.16 µM, first compound 0.0316 µM
[27] = second compound 3.16 µM, first compound 0.1 µM
[28] = second compound 3.16 µM, first compound 0.316 µM
[29] = second compound 3.16 µM, first compound 1 µM
[30] = second compound 3.16 µM, first compound 3.16 µM
[31] = second compound 0.0316 µM, first compound 10 µM
[32] = second compound 0.1 µM, first compound 10 µM
[33] = second compound 0.316 µM, first compound 10 µM
[34] = second compound 1 µM, first compound 10 µM
[35] = second compound 3.16 µM, first compound 10 µM
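Note: compound exposure lasted 7 days before the readout.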
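Throughout, for viability, T/C: 100% = DMSO vehicle control viability.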

Row | SMILES | pIC50 (second compound 0.0316 µM) | pIC50 (second compound 0.1 µM) | pIC50 (second compound 0.316 µM) | pIC50 (second compound 1 µM) | pIC50 (second compound 3.16 µM) | viability, T/C [2] [%] | viability, T/C [3] [%] | viability, T/C [4] [%] | viability, T/C [5] [%] | viability, T/C [6] [%] | viability, T/C [8] [%] | viability, T/C [9] [%] | viability, T/C [10] [%] | viability, T/C [11] [%] | viability, T/C [14] [%] | viability, T/C [15] [%] | viability, T/C [20] [%] | viability, T/C [21] [%] | viability, T/C [26] [%] | viability, T/C [27] [%] | also measured
1 | CC(=O)OC12COC1CC(O)C1(C)C(=O)C(O)C3=C(C)C(OC(=O)C(O)C(NC(=O)OC(C)(C)C)c4ccccc4)CC(O)(C(OC(=O)c4ccccc4)C21)C3(C)C (stereo not given) + C=CC(=O)N1CCN(c2nc(OCC3CCCN3C)nc3c2CCN(c2cccc4cccc(C)c24)C3)CC1CC#N | < 5.50 | < 5.50 | < 5.50 | 5.89 | < 5.50 | 86.6 | 76.2 | 91.5 | 128 | 78.6 | 99.4 | 89.6 | 82.7 | 72.1 | 109 | 94.7 | 91.4 | 77 | 104 | 102 | viability, T/C [1]: 87.4%; viability, T/C [7]: 106%; viability, T/C [12]: 82.4%; viability, T/C [13]: 126%; viability, T/C [16]: 75.8%; viability, T/C [17]: 76.7%; viability, T/C [18]: 75.5%; viability, T/C [19]: 84.5%; viability, T/C [22]: 86%; viability, T/C [23]: 54.6%; viability, T/C [24]: 34.5%; viability, T/C [25]: 83.5%; viability, T/C [28]: 84.8%; viability, T/C [29]: 91.7%; viability, T/C [30]: 90.1%
2 | CN(C)C/C=C/C(=O)Nc1cc2c(Nc3ccc(F)c(Cl)c3)ncnc2cc1O[C@H]1CCOC1 + C=CC(=O)N1CCN(c2nc(OCC3CCCN3C)nc3c2CCN(c2cccc4cccc(C)c24)C3)CC1CC#N | < 7.00 | < 7.00 | < 7.00 | < 7.00 | > 9.50 | 78.3 | 75.8 | – | – | – | 65.9 | 64.1 | – | – | 66.2 | 70.7 | 53.1 | 59.6 | 0.21 | 0.47 | viability, T/C (second compound 0.0316 µM, first compound 0.000316 µM): 82.1%; viability, T/C (second compound 0.0316 µM, first compound 0.001 µM): 86.9%; viability, T/C (second compound 0.0316 µM, first compound 0.00316 µM): 98.2%; viability, T/C [1]: 68.6%; viability, T/C (second compound 0.1 µM, first compound 0.000316 µM): 89.2%; viability, T/C (second compound 0.1 µM, first compound 0.001 µM): 98%; viability, T/C (second compound 0.1 µM, first compound 0.00316 µM): 65.7%; viability, T/C [7]: 62.1%; viability, T/C (second compound 0.316 µM, first compound 0.000316 µM): 77.6%; viability, T/C (second compound 0.316 µM, first compound 0.001 µM): 70.7%; viability, T/C (second compound 0.316 µM, first compound 0.00316 µM): 69.3%; viability, T/C [13]: 62.2%; viability, T/C (second compound 1 µM, first compound 0.000316 µM): 59.1%; viability, T/C (second compound 1 µM, first compound 0.001 µM): 72.6%; viability, T/C (second compound 1 µM, first compound 0.00316 µM): 70%; viability, T/C [19]: 72.1%; viability, T/C (second compound 3.16 µM, first compound 0.000316 µM): 0.31%; viability, T/C (second compound 3.16 µM, first compound 0.001 µM): 0.19%; viability, T/C (second compound 3.16 µM, first compound 0.00316 µM): 0.24%; viability, T/C [25]: 0.2%
3 | COC(=O)c1ccc2c(C(=Nc3ccc(N(C)C(=O)CN4CCN(C)CC4)cc3)c3ccccc3)c(O)[nH]c2c1 + C=CC(=O)N1CCN(c2nc(OCC3CCCN3C)nc3c2CCN(c2cccc4cccc(C)c24)C3)CC1CC#N | 6.17 | 5.93 | 6.19 | 6.92 | > 7.50 | 90.5 | 87.1 | 61.1 | 50.7 | 0.59 | 73.9 | 76.4 | 64.5 | 57.8 | 95 | 88.8 | 47.2 | 63.7 | 0.24 | 0.16 | viability, T/C [31]: 0.32%; viability, T/C [12]: 0.37%; viability, T/C [32]: 0.38%; viability, T/C [16]: 67.6%; viability, T/C [17]: 42.8%; viability, T/C [18]: 0.3%; viability, T/C [33]: 0.2%; viability, T/C [22]: 20.4%; viability, T/C [23]: 0.52%; viability, T/C [24]: 0.13%; viability, T/C [34]: 0.19%; viability, T/C [28]: 0.25%; viability, T/C [29]: 0.15%; viability, T/C [30]: 0.21%; viability, T/C [35]: 0.22%
4 | O=C(c1cc(Cc2n[nH]c(=O)c3ccccc23)ccc1F)N1CCN(C(=O)C2CC2)CC1 + C=CC(=O)N1CCN(c2nc(OCC3CCCN3C)nc3c2CCN(c2cccc4cccc(C)c24)C3)CC1CC#N | < 5.00 | < 5.00 | < 5.00 | < 5.00 | > 7.50 | 91 | 91.8 | 90.8 | 109 | 113 | 84.7 | 99.4 | 81.3 | 79 | 84.6 | 96.5 | 72.2 | 79.3 | 0.28 | 0.21 | viability, T/C [31]: 103%; viability, T/C [12]: 73.9%; viability, T/C [32]: 84.7%; viability, T/C [16]: 87%; viability, T/C [17]: 69.3%; viability, T/C [18]: 76.1%; viability, T/C [33]: 72.5%; viability, T/C [22]: 87.2%; viability, T/C [23]: 69.4%; viability, T/C [24]: 80.2%; viability, T/C [34]: 62.5%; viability, T/C [28]: 0.3%; viability, T/C [29]: 0.29%; viability, T/C [30]: 0.28%; viability, T/C [35]: 0.43%
